Assay [1] addresses T1, PI3Kα H1047R protein (p110-α H1047R complexed with truncated p85-α) (Homo sapiens, UniProt P42336, H1047R).
T1 construct: The protein contained a full-length p110-α subunit harboring the H1047R mutation
Put plainly: Surface Plasmon Resonance (SPR) binding, wortmannin-blocked protein. The note with it: Biacore 8K, ATP site blocked with 1 μM wortmannin, 25° C. How it is done: Surface Plasmon Resonance (SPR)
SPR experiments were performed on a Biacore 8K instrument. A biotinylated recombinant PI3Kα H1047R protein was used in this study. The protein contained a full-length p110-α subunit harboring the H1047R mutation with an N-terminal AviTag, complexed with a truncated p85-α subunit (amino acid residues 322-694). The protein was first incubated with 1 μM wortmannin for 30 min at RT to covalently block the ATP binding site, then immobilized onto a streptavidin sensor chip by flowing the protein through the sensor chip at typically 20 μg/mL concentration and 2 μL/min flow rate for 1200 seconds. Compound binding affinities were measured in the multi-cycle kinetics mode, at 90 μL/min flow rate with 90 seconds association time and 240 seconds dissociation time. The running buffer contained 50 mM Tris, pH 7.5, 150 mM NaCl, 0.01% Brij35, 1 mM DTT, 1 mM MgCl2, 0.05% Tween-20 and 2% DMSO. Temperature was maintained at 25° C. during experiments.

The test system of assay [2] is T47D pAKT (S473), PI3Kα H1047R mutation present. Put plainly: HTRF pAKT-T47D.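 Also: assay medium was RPMI with 10% FBS and 0.2 units/ml bovine insulin, without phenol red.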
Protocol: Homogenous Time-Resolved Fluorescence (HTRF)—pAKT-T47D
Compounds were assayed using homogeneous time-resolved fluorescence (HTRF).
Gibco RPMI 1640 Medium, no phenol red; Gibco RPMI 1640 Medium; Gibco Trypsin-EDTA (0.5%), no phenol red; Gibco DPBS; Trypan blue solution 0.4% (Corning); Avantor Seradigm Premium Grade Fetal Bovine Serum (FBS); Greiner 784080-384 well TC treated white plates; pAKT (Ser473) HTRF; Gibco Insulin, human recombinant, zinc solution; Gibco Recovery Cell Culture Freezing Medium; Countess II FL Automated Cell Counter (ThermoFisher); Countess II Slides (ThermoFisher); Microscope; and PHERAstar FSX Microplate Reader (BMG LABTECH, Inc.).
The scinamic cell line ID was T47D.1, the HTRF detection was pAKT (S473), a PI3Kα H1047R mutation was present, the seeding density was 5000, the timepoint was 1 hour, and the medium used was RPMI+10% FBS (no phenol red)+0.2 units/ml bovine insulin.
• The cell density was not permitted to reach 100% confluence. The cells were split 1:5 when they reached ˜80% confluence. • Cells were split twice a week (Mon and Fri). • Cells over passage 18 were not used (˜2 months of maintenance). • Antibiotics were not used for tissue culture maintenance or assays. […] Protocol Day1
The procedure was as follows: • 1. Prepared ARP: • a. Stamped 12.5 nL from 10 μmM source plate to destination plate using Echo. Sealed plate immediately and froze at −20° C. if it was not used on the same day. • b. If a frozen ARP was used, the plate was thawed and spun at 1000 rpm×1 min. • 2. Preparation of cells (adherent): • a. Aspirated media from cells. Washed cells with sterile 1XPBS. Aspirated PBS and added appropriate amount of Trypsin. • b. Once cells were fully trypsinized, added appropriate media to resuspend cells. Transferred cells to a 15 mL or 50 mL conical tube. • c. Counted cells on the Countess II Cell Counter. • 3. Plating of cells: • a. Prepared cells at appropriate plating density. Dispensed 12 μL of diluted cells per well of a Greiner 784080-384 well TC treated white plate using a Multidrop Combi to columns 1-23. Added 12 uL of appropriate phenol free media only to column 24. • b. Placed plates in 37° C. tissue culture incubator for appropriate treatment time (refer to “Assay” table). • 4. Prepared HTRF Lysis Buffer • a. Calculate the amount of HTRF lysis buffer master mix needed to perform the desired experiments plus any extra dead volume required for dispensing (4 μL required per well). […] Add 4 uL Lysis buffer master mix to all wells with sample or DMSO. Centrifuge the plates for 1 minute at 1000 rpm. • c. Incubate at room temperature for 30 minutes. • 5. Prepared HTRF Antibody • a.
[3] abbreviates: Homo sapiens, T47D, 1 h, read-out: T47D pAKT IC50 (nM), T47D.1 cells, pAKT (S473) HTRF, 1 hour.
The mark [4] stands for this setting: read-out: T47D pAKT IC50, T47D.1 cells, pAKT (S473) HTRF, 1 hour.

Each structure is given as a SMILES string. Read-outs that look alike come from different tables or passages of the source.

T1 sequence (P42336 whole entry H1047R, the tested form may be a part): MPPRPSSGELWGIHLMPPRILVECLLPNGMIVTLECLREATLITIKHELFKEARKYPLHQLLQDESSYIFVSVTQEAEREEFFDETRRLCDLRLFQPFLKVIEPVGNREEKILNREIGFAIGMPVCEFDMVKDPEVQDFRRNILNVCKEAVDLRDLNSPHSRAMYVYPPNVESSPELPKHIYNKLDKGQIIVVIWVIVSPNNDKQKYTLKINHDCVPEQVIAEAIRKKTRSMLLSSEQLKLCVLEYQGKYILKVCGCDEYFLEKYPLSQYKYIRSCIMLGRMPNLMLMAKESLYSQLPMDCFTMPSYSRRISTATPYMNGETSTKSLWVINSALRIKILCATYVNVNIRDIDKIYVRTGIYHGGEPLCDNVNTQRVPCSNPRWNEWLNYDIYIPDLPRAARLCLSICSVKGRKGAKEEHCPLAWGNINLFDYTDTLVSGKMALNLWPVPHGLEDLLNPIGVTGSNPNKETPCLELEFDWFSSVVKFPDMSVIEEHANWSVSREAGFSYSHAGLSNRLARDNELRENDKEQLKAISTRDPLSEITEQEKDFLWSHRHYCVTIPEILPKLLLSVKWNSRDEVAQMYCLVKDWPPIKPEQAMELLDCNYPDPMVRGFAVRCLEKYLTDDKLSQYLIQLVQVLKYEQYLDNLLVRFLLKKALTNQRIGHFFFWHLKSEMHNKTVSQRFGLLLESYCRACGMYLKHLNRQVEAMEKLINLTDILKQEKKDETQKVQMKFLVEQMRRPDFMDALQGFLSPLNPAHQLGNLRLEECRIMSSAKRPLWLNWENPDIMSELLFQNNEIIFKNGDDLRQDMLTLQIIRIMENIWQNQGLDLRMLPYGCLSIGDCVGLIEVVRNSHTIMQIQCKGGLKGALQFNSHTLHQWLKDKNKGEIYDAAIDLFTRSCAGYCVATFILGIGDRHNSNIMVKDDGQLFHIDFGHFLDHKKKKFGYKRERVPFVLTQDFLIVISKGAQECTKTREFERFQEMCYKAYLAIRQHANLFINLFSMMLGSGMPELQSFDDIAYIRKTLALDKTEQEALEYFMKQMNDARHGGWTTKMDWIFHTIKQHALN
T1 sequence (P27986 322-694 partner limits assumed): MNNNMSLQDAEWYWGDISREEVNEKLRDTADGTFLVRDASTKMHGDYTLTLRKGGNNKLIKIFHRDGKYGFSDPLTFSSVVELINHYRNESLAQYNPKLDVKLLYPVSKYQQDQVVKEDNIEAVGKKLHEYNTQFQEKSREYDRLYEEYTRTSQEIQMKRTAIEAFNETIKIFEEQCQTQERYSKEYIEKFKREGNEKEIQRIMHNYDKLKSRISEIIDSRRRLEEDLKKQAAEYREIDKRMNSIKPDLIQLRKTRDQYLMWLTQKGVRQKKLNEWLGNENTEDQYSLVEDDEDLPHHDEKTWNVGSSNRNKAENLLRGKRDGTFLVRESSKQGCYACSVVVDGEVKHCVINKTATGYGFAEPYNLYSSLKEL

Consider `CC(C)C(NC(=O)Nc1cccc(C(N)=O)c1)c1cc2cc(F)ccc2o1` (racemic) [Compound 50, 3-(3-(1-(5-fluorobenzofuran-2-yl)-2-methylpropyl)ureido)benzamide], for which the Kd in assay [1] fell in the range of 100 to 250 nM. In addition, in assay [2] (setting [3]), the 50% inhibitory concentration (IC50) was above 5000 nM.

As for `Cc1c(C(NC(=O)Nc2cccc(C(N)=O)c2)C(C)C)oc2ccc(F)c(F)c12` (racemic) [Compound 54, 3-(3-(1-(4,5-difluoro-3-methylbenzofuran-2-yl)-2-methylpropyl)ureido)benzamide], the dissociation constant Kd in assay [1] lay within 100 to 250 nM. Also, in assay [2] (setting [3]), the IC50 was above 5000 nM.

Regarding `Cc1c(C(NC(=O)Nc2cnc(N)nc2)C(F)(F)F)oc2ccc(F)cc12` (racemic) [Compound 68, 1-(2-aminopyrimidin-5-yl)-3-(2,2,2-trifluoro-1-(5-fluoro-3-methylbenzofuran-2-yl)ethyl)urea], the Kd in assay [1] is below 100 nM. Also, the concentration for half-maximal inhibition (IC50) in assay [2] (setting [3]) was below 1000 nM.

In the case of `Cc1c([C@@H](NC(=O)N[C@H]2CC[C@H](C(N)=O)CC2)C(C)C)oc2ccc(F)cc12` (relative stereo) [Compound 42, (1R,4r)-4-(3-((R*)-1-(5-fluoro-3-methylbenzofuran-2-yl)-2-methylpropyl)ureido)cyclohexane-1-carboxamide], the Kd in assay [1] is at least 500 nM.

On to `Cc1c(C(NC(=O)Nc2ccc(S(C)(=O)=O)cc2)C(C)C)oc2ccc(F)cc12` (single isomer, unassigned) [Compound 11], for which the Kd in assay [1] is 100 to 250 nM.

On to `CNS(=O)(=O)c1ccc(NC(=O)NC(C)c2oc3ccc(F)cc3c2C)cc1` (single isomer, unassigned) [Compound 14], for which, in assay [1], the equilibrium dissociation constant (Kd) was at least 500 nM.

`Cc1c([C@@H](NC(=O)N[C@@H]2CCCN(S(C)(=O)=O)C2)C(C)C)oc2ccc(F)cc12` (single isomer, unassigned) [Compound 19]: the Kd in assay [1] was at least 500 nM.

In the case of `Cc1c([C@@H](NC(=O)N[C@H]2CCCN(S(C)(=O)=O)C2)C(C)C)oc2ccc(F)cc12` (single isomer, unassigned) [Compound 20], in assay [1], the Kd is 100 to 250 nM. Further, the IC50 in assay [2] (setting [3]) is 1000 to 5000 nM.

Turning to `Cc1c([C@@H](NC(=O)Nc2ccc(C(N)=O)cc2)C(C)C)oc2ccc(F)cc12` (single isomer, unassigned) [Compound 21], the Kd in assay [1] lay within 100 to 250 nM.

`Cc1c([C@@H](NC(=O)Nc2cccc(S(C)(=N)=O)c2)C(C)C)oc2ccc(F)cc12` (single isomer, unassigned) [Compound 29]: the Kd in assay [1] was 100 to 250 nM. Further, the half-maximal inhibitory concentration (IC50) in assay [2] (setting [3]) was 1000 to 5000 nM.

Consider `Cc1c([C@@H](NC(=O)Nc2cccc(S(C)(=N)=O)c2)C(C)C)oc2ccc(F)cc12` (single isomer, unassigned) [Compound 30], for which, in assay [1], the Kd lay within 100 to 250 nM. For the same compound, the half-inhibitory concentration (IC50) in assay [2] (setting [4]) lay in the range of 1000 to 5000 nM.

As to `Cc1c([C@@H](NC(=O)N[C@@H]2CCC[C@@H](C(N)=O)C2)C(C)C)oc2ccc(F)cc12` (single isomer, unassigned) [Compound 32], in assay [1], the equilibrium dissociation constant (Kd) was 100 to 250 nM. Further, the half-inhibitory concentration (IC50) in assay [2] (setting [3]) is above 5000 nM.

For `COC(=O)N1CCC(NC(=O)NC(c2oc3ccc(F)cc3c2C)C(C)C)CC1` (single isomer, unassigned) [Compound 36], in assay [1], the Kd was at least 500 nM. In addition, in assay [2] (setting [3]), the 50% inhibitory concentration (IC50) is above 5000 nM.

In the case of `Cc1c(C(NC(=O)Nc2cnc(N3CCC3)nc2)C(F)(F)F)oc2ccc(F)cc12` (single isomer, unassigned) [Compound 69, 1-(2-(azetidin-1-yl)pyrimidin-5-yl)-3-(2,2,2-trifluoro-1-(5-fluoro-3-methylbenzofuran-2-yl)ethyl)urea], the Kd in assay [1] is below 100 nM. The half-maximal inhibitory concentration (IC50) in assay [2] (setting [3]) was below 1000 nM.

As to `Cc1c([C@@H](NC(=O)Nc2cccnc2)C(C)C)oc2ccc(F)cc12` [Compound 1, (S)-1-(1-(5-fluoro-3-methylbenzofuran-2-yl)-2-methylpropyl)-3-(pyridin-3-yl)urea], in assay [1], the Kd is 250 to 500 nM. Moreover, in assay [2] (setting [3]), the IC50 is 1000 to 5000 nM.

With `Cc1c([C@H](C)NC(=O)Nc2cccc(C(N)=O)c2)oc2ccc(F)cc12` [Compound 3, (S)-3-(3-(1-(5-fluoro-3-methylbenzofuran-2-yl)ethyl)ureido) benzamide], in assay [1], the Kd is at least 500 nM. The IC50 in assay [2] (setting [3]) was above 5000 nM.

For `Cc1c([C@@H](C)NC(=O)Nc2ccc(C(N)=O)cc2)oc2ccc(F)cc12` [Compound 4, (R)-4-(3-(1-(5-fluoro-3-methylbenzofuran-2-yl)ethyl)ureido)benzamide], the Kd in assay [1] was at least 500 nM.

As to `Cc1c([C@@H](NC(=O)N[C@H]2CC[C@H](O)CC2)C(C)C)oc2ccc(F)cc12` [Compound 6, 1-((S)-1-(5-fluoro-3-methylbenzofuran-2-yl)-2-methylpropyl)-3-((1r,4S)-4-hydroxycyclohexyl)urea], the dissociation constant Kd in assay [1] is 250 to 500 nM.

As to `Cc1c([C@@H](NC(=O)N[C@H]2CC[C@H](O)CC2)C(C)C)oc2cccc(F)c12` [Compound 7, 1-((S)-1-(4-fluoro-3-methylbenzofuran-2-yl)-2-methylpropyl)-3-((1r, 4S)-4-hydroxycyclohexyl)urea], the Kd in assay [1] was at least 500 nM.

Regarding `Cc1c([C@@H](NC(=O)Nc2ccc(S(C)(=O)=O)cc2)C(C)C)oc2ccccc12` [Compound 9, (S)-1-(2-methyl-1-(3-methylbenzofuran-2-yl)propyl)-3-(4-(methylsulfonyl)phenyl)urea], the Kd in assay [1] was 250 to 500 nM.

Turning to `Cc1c([C@@H](C)NC(=O)Nc2ccc(S(N)(=O)=O)cc2)oc2ccc(F)cc12` [Compound 12, (R)-4-(3-(1-(5-fluoro-3-methylbenzofuran-2-yl)ethyl)ureido) benzenesulfonamide], in assay [1], the Kd is at least 500 nM. The IC50 in assay [2] (setting [4]) was 1000 to 5000 nM.

With `CCS(=O)(=O)c1ccc(NC(=O)N[C@H](C)c2oc3ccc(F)cc3c2C)cc1` [Compound 13, (R)-1-(4-(ethylsulfonyl)phenyl)-3-(1-(5-fluoro-3-methylbenzofuran-2-yl)ethyl)urea], in assay [1], the Kd is at least 500 nM. For the same compound, the concentration for half-maximal inhibition (IC50) in assay [2] (setting [3]) was above 5000 nM.

In the case of `Cc1c([C@@H](NC(=O)Nc2ccc(S(C)(=O)=O)cc2)C2CC2)oc2ccc(F)cc12` [Compound 16, (S)-1-(cyclopropyl(5-fluoro-3-methylbenzofuran-2-yl)methyl)-3-(4-(methylsulfonyl)phenyl)urea], in assay [1], the equilibrium dissociation constant (Kd) is at least 500 nM.

With `Cc1c([C@@H](NC(=O)Nc2cccc(S(N)(=O)=O)c2)C(C)C)oc2ccc(F)cc12` [Compound 17, (S)-3-(3-(1-(5-fluoro-3-methylbenzofuran-2-yl)-2-methylpropyl)ureido)benzenesulfonamide], the Kd in assay [1] is 250 to 500 nM.

For the compound `Cc1c([C@@H](NC(=O)Nc2cccc(C(=O)N(C)C)c2)C(C)C)oc2ccc(F)cc12` [Compound 22, (S)-3-(3-(1-(5-fluoro-3-methylbenzofuran-2-yl)-2-methylpropyl)ureido)-N,N-dimethylbenzamide], the equilibrium dissociation constant (Kd) in assay [1] is below 100 nM. For the same compound, the IC50 in assay [2] (setting [3]) was in the range of 1000 to 5000 nM.

Turning to `CNC(=O)c1cccc(NC(=O)N[C@H](c2oc3ccc(F)cc3c2C)C(C)C)c1` [Compound 23, (S)-3-(3-(1-(5-fluoro-3-methylbenzofuran-2-yl)-2-methylpropyl)ureido)-N-methylbenzamide], the equilibrium dissociation constant (Kd) in assay [1] fell in the range of 250 to 500 nM. The IC50 in assay [2] (setting [3]) lay within 1000 to 5000 nM.

Regarding `Cc1c([C@@H](NC(=O)Nc2cncc(C(N)=O)c2)C(C)C)oc2ccc(F)cc12` [Compound 24, (S)-5-(3-(1-(5-fluoro-3-methylbenzofuran-2-yl)-2-methylpropyl)ureido) nicotinamide], in assay [1], the Kd is below 100 nM. Moreover, the IC50 in assay [2] (setting [3]) is below 1000 nM.

On to `Cc1c([C@@H](NC(=O)Nc2cncc(S(C)(=O)=O)c2)C(C)C)oc2ccc(F)cc12` [Compound 27, (S)-1-(1-(5-fluoro-3-methylbenzofuran-2-yl)-2-methylpropyl)-3-(5-(methylsulfonyl)pyridin-3-yl)urea], for which the equilibrium dissociation constant (Kd) in assay [1] is below 100 nM. Besides, the IC50 in assay [2] (setting [3]) is below 1000 nM.

Take `Cc1c([C@@H](NC(=O)Nc2cccc(S(C)(=N)=O)c2)C(C)C)oc2ccc(F)cc12` (stereo partly drawn) [Compound 28, 1-((S)-1-(5-fluoro-3-methylbenzofuran-2-yl)-2-methylpropyl)-3-(3-(S-methylsulfonimidoyl)phenyl)urea]: the Kd in assay [1] lay within 100 to 250 nM.

As for `Cc1c([C@@H](NC(=O)Nc2cncc(C#N)c2)C2CC2)oc2ccc(F)cc12` [Compound 46, (S)-1-(5-cyanopyridin-3-yl)-3-(cyclopropyl(5-fluoro-3-methylbenzofuran-2-yl)methyl)urea], the Kd in assay [1] was at least 500 nM.

`COC(=O)N1CCC[C@H](NC(=O)N[C@H](c2oc3ccc(F)cc3c2C)C(C)C)C1` [Compound 55, methyl (S)-3-(3-((S)-1-(5-fluoro-3-methylbenzofuran-2-yl)-2-methylpropyl)ureido)piperidine-1-carboxylate]: the Kd in assay [1] was at least 500 nM.

For the compound `Cc1c([C@H](NC(=O)Nc2cnc(N3CC[C@H](O)C3)nc2)C(F)(F)F)oc2c(F)cc(F)cc12` [Compound 210], the IC50 in assay [2] (setting [3]) is above 5000 nM.

As for `Cc1c([C@@H](NC(=O)Nc2cnc(N3CC(C(N)=O)C3)nc2)C(F)(F)F)oc2c(F)cc(F)cc12` [Compound 211], in assay [2] (setting [3]), the IC50 was below 1000 nM.

`Cc1c([C@H](NC(=O)Nc2cnc(N3CC(C(N)=O)C3)nc2)C(F)(F)F)oc2c(F)cc(F)cc12` [Compound 212]: the IC50 in assay [2] (setting [3]) was above 5000 nM.

(Values after patent publication US12084434B2 (Scorpion Therapeutics, Inc., priority 2021, dated 2024).)
